Values of other authors as cited in patent publication US9457321B2, “Furanone containing polymer compound with bacteria-adhesion properties” (Stellenbosch University, priority 2012, dated 2016).

Test system: P. aeruginosa, S. aureus, E. coli and Enterococci

CC1=C(O)C(=O)C(C)O1 (stereo not shown) [DMHF, 2,5-dimethyl-4-hydroxy-3(2H)-furanone]
antimicrobial efficacy: exceptional antimicrobial efficacy
